Assays:
Sprague-Dawley rats [1] = experiment: Development of morphine tolerance with systemic treatment, tail-flick test; assay type: in vivo, rat; details: for inhibition of the development of morphine tolerance: FIG. 6
rats [2] = experiment: Health observations (death, grooming, weight loss) during the morphine tolerance experiment; details: for overall toxicity: conclusion of Example 4; for rats that died due to drug administration: GM1 or dextrorphan treatment groups; for grooming and weight: ganglioside GM1 or dextrorphan treatment groups
rats [3] = experiment: Development of morphine tolerance with intrathecal treatment, tail-flick test; assay type: in vivo, rat; details: for analgesic effect of morphine (tail-flick latency) on day 8: 100 or 50 nmol intrathecal immediately before each morphine 10 μg; for dose relation of the prevention of morphine tolerance: intrathecal; for prevention of the development of morphine tolerance: intrathecal administration immediately before each once daily intrathecal morphine sulfate 10 μg, FIGS. 7-10
Description: Morphine sulfate 10 μg was delivered once daily through an intrathecal (spinal) canula implanted 5 days before the first morphine injection. Ganglioside GM1 or saline also was delivered intrathecally 30 minutes before each morphine injection.
Intrathecal ganglioside GM1 was given 30 min before each morphine administration. […] Vertical bars are standard errors. Maximal possible effects (MPE) were calculated by the formula % MPE=[(TL−BL)/(10−BL)]×100. TL: actual tail-flick latency; BL: baseline latency obtained before the first morphine injection; 10: cut-off time for radiant heat stimulation.
Calmodulin is an intracellular colactor necessary for the nitric oxide pathway that can be initiated upon NMDA receptor activation. […] Each data point in FIGS. 7-10 represents the mean of a group of rats (n=6) and standard errors are shown by vertical lines. The asterisks refer to statistical differences (α=0.05) between the saline group and each other group.

Sprague-Dawley rats [4] = experiment: Naloxone-produced jumping (withdrawal symptom) in morphine-treated rats; assay type: in vivo, rat

C[C@]12N[C@H](Cc3ccccc31)c1ccccc12 [MK 801, 5-methyl-10,11-dihydro-SH-dibenzo[a,d]cyclohepten-5,10-imine]
inhibition of the development of morphine tolerance (Sprague-Dawley rats [1]; MK 801 0.3 mg/kg): inhibited the development of morphine tolerance | rats that died before the completion of the experiment (rats [2]; 0.3 mg/kg, 3 out of 6): 50% | grooming and weight of the remaining rats (rats [2]; MK 801 0.3 mg/kg): apparently poor grooming and weight loss | overall toxicity (rats [2]): severe cytotoxic effects

CN1CCN(CCCN2c3ccccc3Sc3ccc(C(F)(F)F)cc32)CC1 [TFP, trifluoperazine]
analgesic effect of morphine (tail-flick latency) on day 8 (rats [3]): showed a reliable analgesic effect of morphine | dose relation of the prevention of morphine tolerance (rats [3]): 100=50 nmol>25=12.5 nmol | prevention of the development of morphine tolerance (rats [3]): effectively prevent the development of morphine tolerance

Cl.NCCCCCCNS(=O)(=O)c1cccc2c(Cl)cccc12 [W-7, N-(6-aminohexyl)-5-chloro-1-naphthalenesulfonamide hydrochloride]
analgesic effect of morphine (tail-flick latency) on day 8 (rats [3]): showed a reliable analgesic effect of morphine | dose relation of the prevention of morphine tolerance (rats [3]): 100=50 nmol>25=12.5 nmol | prevention of the development of morphine tolerance (rats [3]): effectively prevent the development of morphine tolerance

CN1CC[C@]23CCCC[C@H]2[C@H]1Cc1ccc(O)cc13 [dextrorphan, (+)-3-hydroxy-N-methylmorphinan]
analgesic effect of the morphine on coadministration (Sprague-Dawley rats [1]; coadministration of dextrorphan with morphine): remains substantially unaffected | prevention of the development of morphine tolerance (tail-flick latency) (Sprague-Dawley rats [1]; dextrorphan 1.56, 3.13, 6.25, 12.5 mg/kg i.p. 30 min prior to each morphine 10 mg/kg s.c. twice daily, vs saline control, FIG. 1): potently prevented the development of morphine tolerance | rats that died due to drug administration (rats [2]): None | overall toxicity (rats [2]): nontoxic | grooming and weight (rats [2]): continued to appear well groomed and did not show weight loss | incidence of jumping after naloxone 2 mg/kg s.c. (Sprague-Dawley rats [4]; dextrorphan 3.13 and 6.25 mg/kg, morphine 10 mg/kg twice daily for 9 days, vs MOR+SAL, FIG. 2): significantly reduced the incidence of jumping

CN1CC[C@]23c4c5ccc(O)c4O[C@H]2[C@@H](O)C=C[C@H]3[C@H]1C5.O=S(=O)(O)O [morphine, morphine sulfate]
post-drug tail-flick latency scores (Sprague-Dawley rats [1]; measured 1 hour after drug administration, first 5 days of daily administration, morphine 10 mg/kg s.c. twice daily, baseline 4-5 seconds): ~10 s | response to morphine (tolerance), control group (Sprague-Dawley rats [1]; morphine 10 mg/kg s.c. twice daily + saline, at 7 and 9 days): marked reduction in response to morphine | response to morphine (tolerance), control group (rats [3]; once daily intrathecal morphine 10 μg + saline, Day 8, each tested time point): marked reduction in response to morphine | tolerance to the analgesic effect (tail-flick latencies vs baseline, day 1) (rats [3]; once daily intrathecal morphine sulfate 10 μg and saline for 7 consecutive days): developed tolerance to the analgesic effect or morphine

ganglioside GM1
inhibition of the development of morphine tolerance (Sprague-Dawley rats [1]; ganglioside GM1 60 mg/kg): inhibited the development of morphine tolerance to the degree equivalent to that induced by 0.3 mg/kg MK 801 | tail flick latency versus saline-treated rats (Sprague-Dawley rats [1]; ganglioside GM1 10, 30, 60 mg/kg systemic, 1 hour before each morphine, days 5, 7, 9 and 10 of repeated morphine, FIG. 3): remained significantly longer than that of saline-treated rats | comparison of doses for prevention of morphine tolerance (Sprague-Dawley rats [1]; ganglioside GM1 systemic, 10, 30, 60 mg/kg, FIG. 3): 30 and 60 mg/kg were more effective at days 9 and 10 than 10 mg/kg | rats that died due to drug administration (rats [2]): None | overall toxicity (rats [2]): nontoxic | grooming and weight (rats [2]): continued to appear well groomed and did not show weight loss | prevention of morphine tolerance (maximal possible effects, % MPE) (rats [3]; intrathecal ganglioside GM1 30 min before each once daily intrathecal morphine 10 μg, Day 8, 15-240 minutes after morphine, vs saline, FIG. 5): effectively prevented the development of morphine tolerance | order of doses, maximal possible analgesia effects of morphine (rats [3]; intrathecal ganglioside GM1, Day 8): 160 nmol>80=40 nmol | number of jumps after naloxone 2 mg/kg s.c. (Sprague-Dawley rats [4]; GM1 10, 30 and 60 mg/kg systemic, morphine 10 mg/kg twice daily for 9 days, vs MOR+SAL, FIG. 4): effective | most effective dose tested against naloxone-produced jumping (Sprague-Dawley rats [4]; GM1 systemic, doses 10, 30, 60 mg/kg): 60 mg/kg

— patent USRE39300E1, “Inhibiting the development of tolerance to and/or dependence on an addictive substance” (Virginia Commonwealth University Medical College of Virginia, priority 1993, dated 2006)
